How the values were obtained:
[1] = Plasma protein binding assay (ultrafiltration); type: in vitro ADME; conditions: mouse plasma
Experimental: The extent to which KCN1 was bound by mouse plasma proteins was assessed by a previously described method involving the use of a micro-ultrafiltration system. Samples of mouse plasma containing KCN1 at concentrations of 1.0 and 10 µM were maintained at 37°C for 1 h. Controls were prepared using methanol in place of plasma. From each of these preparations, a portion was taken and placed in a sample reservoir of an Amicon Centrifree® ultrafiltration system (Millipore Co., Bedford, MA). The filter systems were centrifuged at 2,000 × g until the reservoirs were dry. From each sample, triplicate portions were taken for analysis by HPLC. The amounts present in the filtrate were designated as “free drug” (F). The concentrations of the unfiltered solutions were also determined by triplicate analyses. This amount represented the “total drug” concentration (T). The amount bound to the filter (X) was also considered. The percentage of KCN1 bound to plasma proteins was calculated by the following formula: % bound = [(T-F-X)/T]×100.

[2] = S9 metabolism; type: in vitro ADME, CD2F1 mice
Experimental: The in vitro metabolism of KCN1 was determined using hepatic microsomal S9 fractions from CD2F1 mice (In Vitro Technologies, Boston, MA). The reaction mixture consisted of 20 µL of 1000 µM KCN1 (in DMSO) and 1280 µL of cold 100 mM Tris buffer (pH 7.4). The reactions were initiated by adding 200 µL of the appropriate S9 fraction, and were maintained at 37°C. […] Metabolic reactions were initiated by adding phase I (NADPH-regenerating systems) or phase II (UDPGA and PAPS) reagents to the reaction mixtures, respectively. At designated time points (0, 15, 30, 45, and 60 min), duplicate 100 µL portions of the incubation mixture were removed and subjected to HPLC analysis by the same procedure described for plasma samples above. The stability of the drug was determined by analysis of intact KCN1, in comparison with negative control (without S9 fractions).

[3] = test system: Panc-1 cells; experiment: MTT cell survival assay; type: cell-based; conditions: Homo sapiens
Experimental: (§1) The effect of the test compound on human pancreatic cancer cell viability, expressed as the percentage of cell survival, was determined using the MTT assay [45]–[47]. Cells were grown in 96-well plates at 4–5×10^3 cells per well and exposed to different concentrations of the test compound (0, 1, 5, 12.5, 25, 50 or 100 µM). After incubation for different times, 10 µL of the MTT solution (5 mg/mL; Sigma; St. Louis, MO) were added into each well. The plates were incubated for 2–4 hr at 37°C. The supernatant was then removed and the formazan crystals were dissolved with 100 µL of DMSO. The absorbance at 570 nm was recorded using an OPTImax microplate reader (Molecular Devices; Sunnyvale, CA). The cell survival percentages were calculated by dividing the mean optical density (OD) of compound-containing wells by that of DMSO-containing control wells. Three separate experiments were accomplished to determine the IC50 values.

[4] = test system: HPAC cells; experiment: MTT cell survival assay; type: cell-based; conditions: Homo sapiens, 72 h
Experimental: as §1

[5] = test system: BxPC3 cells; experiment: MTT cell survival assay; type: cell-based; conditions: Homo sapiens, BXPC-3
Experimental: as §1

[6] = test system: Mia Paca-2 cells; experiment: MTT cell survival assay; type: cell-based; conditions: Homo sapiens
Experimental: as §1

[7] = test system: Panc-1 cells; experiment: Cell cycle measurement by flow cytometry; type: cell-based, human; conditions: for cell cycle distribution, G1 / cell cycle distribution, G2/M / cell cycle distribution, S: 24 h
Experimental: (§2) To determine the effect of KCN1 on the cell cycle, cells (2–3×10^5) were exposed to the test compounds (0, 5, 12.5 or 50 µM) and incubated for 24 h prior to analysis. Cells were trypsinized, washed with PBS, and fixed in 1.5 mL of 95% ethanol at 4°C overnight, followed by incubation with RNAse and staining with propidium iodide (Sigma). The DNA content was determined by flow cytometry, [47].

[8] = test system: HPAC cells; experiment: Cell cycle measurement by flow cytometry; type: cell-based, human; conditions: 24 h
Experimental: as §2

[9] = test system: BxPC3 cells; experiment: Cell cycle measurement by flow cytometry; type: cell-based, human; conditions: for cell cycle distribution, G1 / cell cycle distribution, G2/M / cell cycle distribution, S: 24 h
Experimental: as §2

[10] = test system: Mia Paca-2 cells; experiment: Cell cycle measurement by flow cytometry; type: cell-based, human; conditions: for cell cycle distribution, G1 / cell cycle distribution, G2/M / cell cycle distribution, S: 24 h
Experimental: as §2

[11] = test system: glioma cells; design: method as in PMID 22923450; conditions: glioma cells ref 31; cited from earlier work

With COc1ccc(S(=O)(=O)N(Cc2ccc3c(c2)C=CC(C)(C)O3)c2ccccc2)cc1OC [KCN1, 3,4-dimethoxy-N-[(2,2-dimethyl-2H-chromen-6-yl)methyl]-N-phenylbenzenesulfonamide] the “binding to plasma proteins” value ([1]; 1.0 µM) was 90.96%, the “binding to plasma proteins” value ([1]; 10.0 µM) was 99.32% and the “decrease in amount of KCN1” value ([2]; mouse S9, phase I (oxidation) enzymes, NADPH-regenerating system) was “more than 60%”. The “half-life with phase II enzymes” value ([2]; mouse S9, phase II (conjugation) enzymes, UDPGA and PAPS) was “relatively long half-life”, the inhibition at 100 µM ([3]; Panc-1, 100 µM, 72 h, read-out: inhibition of cell growth) was 53% and the IC50 ([3]; Panc-1, 72 h, MTT, read-out: Cytotoxicity: IC50) was 100 ± 2.35 µM. The inhibition at 100 µM ([4]; 100 µM, read-out: inhibition of cell growth) was 83%, the IC50 ([4]; MTT, read-out: Cytotoxicity: IC50) was 17.91 ± 0.12 µM and the inhibition at 100 µM ([5]; BxPC3, 100 µM, 72 h, read-out: inhibition of cell growth) was 81%. It also gave an IC50 ([5]; BxPC3, 72 h, MTT, read-out: Cytotoxicity: IC50) of 14.62 ± 0.1 µM, an inhibition at 100 µM ([6]; Mia Paca-2, 100 µM, 72 h, read-out: inhibition of cell growth) of 61% and an IC50 ([6]; Mia Paca-2, 72 h, MTT, read-out: Cytotoxicity: IC50) of 69.9 ± 2.12 µM. The “cell cycle distribution, G1” value ([7]; Panc-1, 5 µM) was 40.3±2.2, the “cell cycle distribution, G2/M” value ([7]; Panc-1, 5 µM) was 30.9±0.8 and the “cell cycle distribution, S” value ([7]; Panc-1, 5 µM) was 28.8±3.2. For the same compound, the “cell cycle distribution, G1” value ([7]; Panc-1, 12.5 µM) was 49.8±0.8, the “cell cycle distribution, G2/M” value ([7]; Panc-1, 12.5 µM) was 28.8±1.6 and the “cell cycle distribution, S” value ([7]; Panc-1, 12.5 µM) was 21.4±0.9. The “cell cycle distribution, G1” value ([7]; Panc-1, 50 µM) was 53.3±2.3, the “cell cycle distribution, G2/M” value ([7]; Panc-1, 50 µM) was 29.1±1.4 and the “cell cycle distribution, S” value ([7]; Panc-1, 50 µM) was 17.6±0.9. The “concentration at which G1 arrest begins” value ([7]; Panc-1, 24 h) was 12.5 µM, the “cell cycle distribution, G1” value ([8]; 5 µM) was 62.1±4.9 and the “cell cycle distribution, G2/M” value ([8]; 5 µM) was 11.8±1.2. For the same compound, the “cell cycle distribution, S” value ([8]; 5 µM) was 26.1±3.8, the “cell cycle distribution, G1” value ([8]; 12.5 µM) was 66.8±1.6 and the “cell cycle distribution, G2/M” value ([8]; 12.5 µM) was 10.9±1.3. The “cell cycle distribution, S” value ([8]; 12.5 µM) was 22.4±1.6, the “cell cycle distribution, G1” value ([8]; 50 µM) was 68.8±2.7 and the “cell cycle distribution, G2/M” value ([8]; 50 µM) was 11.5±1.4. The “cell cycle distribution, S” value ([8]; 50 µM) was 19.7±1.4, the “concentration at which G1 arrest begins” value [8] was 5 µM and the “cell cycle distribution, G1” value ([9]; BXPC3, 5 µM) was 52.9±4.1. The “cell cycle distribution, G2/M” value ([9]; BXPC3, 5 µM) was 26.4±1.3, the “cell cycle distribution, S” value ([9]; BXPC3, 5 µM) was 20.8±3.8 and the “cell cycle distribution, G1” value ([9]; BXPC3, 12.5 µM) was 65.1±3.5. The “cell cycle distribution, G2/M” value ([9]; BXPC3, 12.5 µM) was 17.4±1.9, the “cell cycle distribution, S” value ([9]; BXPC3, 12.5 µM) was 17.5±2.1 and the “cell cycle distribution, G1” value ([9]; BXPC3, 50 µM) was 70.8±2.0. The “cell cycle distribution, G2/M” value ([9]; BXPC3, 50 µM) was 15.5±1.7, the “cell cycle distribution, S” value ([9]; BXPC3, 50 µM) was 13.7±0.9 and the “concentration at which G1 arrest begins” value ([9]; BxPC3, 24 h) was 5 µM. The “cell cycle distribution, G1” value ([10]; Mia Paca-2, 5 µM) was 50.4±3.6, the “cell cycle distribution, G2/M” value ([10]; Mia Paca-2, 5 µM) was 31.6±1.9 and the “cell cycle distribution, S” value ([10]; Mia Paca-2, 5 µM) was 18.0±0.9. For the same compound, the “cell cycle distribution, G1” value ([10]; Mia Paca-2, 12.5 µM) was 55.2±1.2, the “cell cycle distribution, G2/M” value ([10]; Mia Paca-2, 12.5 µM) was 24.6±0.9 and the “cell cycle distribution, S” value ([10]; Mia Paca-2, 12.5 µM) was 20.2±1.7. The “cell cycle distribution, G1” value ([10]; Mia Paca-2, 50 µM) was 58.9±3.9, the “cell cycle distribution, G2/M” value ([10]; Mia Paca-2, 50 µM) was 20.3±1.1 and the “cell cycle distribution, S” value ([10]; Mia Paca-2, 50 µM) was 20.8±1.5. For the same compound, the “concentration at which G1 arrest begins” value ([10]; Mia Paca-2, 24 h) was 5 µM and the cytostatic effect [11] was “little cytostatic effect”.
